What was measured:
BRD4 (BDI_K57-E168) = BRD4 (BDI_K57-E168) (Homo sapiens (Human), UniProt O60885); assay: TR-FRET bromodomain binding assay, BRD4 first bromodomain; details: His-tagged BD1, 100 nM Alexa647 probe
Method: (§1) A time-resolved fluorescence resonance energy transfer (TR-FRET) assay was used to determine the affinities of compounds of the Examples listed in Table 1 for each bromodomain of BRD4. His-tagged first (BD1: amino acids K57-E168) and second (BD2: amino acids E352-E168) bromodomains of BRD4 were expressed and purified. An Alexa647-labeled BET-inhibitor was used as the fluorescent probe in the assay.
(§2) Compound dilution series were prepared in DMSO via a 3-fold serial dilution from 2.5 mM to 42 nM. Compounds were then diluted 6:100 in assay buffer (20 mM Sodium Phosphate, pH 6.0, 50 mM NaCl, 1 mM EDTA, 0.01% Triton X-100, 1 mM DTT) to yield 3× working solutions. Six microliters (μL) of the working solution was then transferred to white, low-volume assay plates (Costar #3673). A 1.5× assay mixture containing His-tagged bromodomain, Europium-conjugated anti-His antibody (Invitrogen PV5596) and the Alexa-647-conjugated probe molecule was also prepared. Twelve μL of this solution were added to the assay plate to reach a final volume of 18 μL. The final concentration of 1× assay buffer contains 2% DMSO, 50 μM−0.85 nM compound, 8 nM bromodomain, 1 nM antibody and 100 or 30 nM probe (for BDI or BDII, respectively). After a one-hour incubation at room temperature, TR-FRET ratios were determined using an Envision multilabel plate reader (Ex 340, Em 495/520).
(§3) TR-FRET data were normalized to the means of 24 no-compound controls (“high”) and 8 controls containing 1 μM un-labeled probe (“low”). Percent inhibition was plotted as a function of compound concentration and the data were fit with the 4 parameter logistic equation to obtain IC50s Inhibition constants (Ki) were calculated from the IC50s, probe Kd and probe concentration. Typical Z′ values were between 0.65 and 0.75. The minimum significant ratio was determined to evaluate assay reproducibility (Eastwood et al., (2006) J Biomol Screen, 11: 253-261). The MSR was determined to be 2.03 for BDI and 1.93 for BDII, and a moving MSR (last six run MSR overtime) for both BDI and BDII was typically <3.

BRD4 (BDII_E352-M457) = BRD4 (BDII_E352-M457) (Homo sapiens (Human), UniProt O60885); assay: TR-FRET bromodomain binding assay, BRD4 second bromodomain; details: His-tagged BD2, 30 nM Alexa647 probe
Method: as §1, §2, §3

Row | Compound | Ki (BRD4 (BDI_K57-E168)) | Ki (BRD4 (BDII_E352-M457))
1 | Cc1[nH]c(-c2ccccc2O)c2c1C(=O)CCC2 [Example 28, 1-(2-hydroxyphenyl)-3-methyl-2,5,6,7-tetrahydro-4H-isoindol-4-one] | 5.31 µM | 15.1 µM
2 | Cc1[nH]c(-c2ccc3c(c2)OCO3)c2c1C(=O)CCC2 [Example 16, 1-(1,3-benzodioxol-5-yl)-3-methyl-2,5,6,7-tetrahydro-4H-isoindol-4-one] | 3.77 µM | 8.42 µM
3 | Cc1[nH]c(-c2cc(NC(=O)c3ccc[nH]3)ccc2Oc2ccc(F)cc2F)c2c1C(=O)CCC2 [Example 51, N-[4-(2,4-difluorophenoxy)-3-(3-methyl-4-oxo-4,5,6,7-tetrahydro-2H-isoindol-1-yl)phenyl]-1H-pyrrole-2-carboxamide] | 0.164 µM | 0.943 µM
4 | Cc1ccc(-c2[nH]c(C)c3c2CCCC3=O)cc1 [Example 4, 3-methyl-1-(4-methylphenyl)-2,5,6,7-tetrahydro-4H-isoindol-4-one] | 2.49 µM | 15.9 µM
5 | Cc1[nH]c(-c2ccccc2OCC2CCCC2)c2c1C(=O)CCC2 [Example 30, 1-[2-(cyclopentylmethoxy)phenyl]-3-methyl-2,5,6,7-tetrahydro-4H-isoindol-4-one] | 1.25 µM | 4.78 µM
6 | Cc1[nH]c(-c2ccccc2OCc2cccc3ccsc23)c2c1C(=O)CCC2 [Example 36, 1-[2-(1-benzothiophen-7-ylmethoxy)phenyl]-3-methyl-2,5,6,7-tetrahydro-4H-isoindol-4-one] | 8.83 µM | 9.73 µM
7 | Cc1[nH]c(-c2ccccc2OCc2cccc3cccnc23)c2c1C(=O)CCC2 [Example 35, 3-methyl-1-[2-(quinolin-8-ylmethoxy)phenyl]-2,5,6,7-tetrahydro-4H-isoindol-4-one] | 9.14 µM | 11 µM
8 | Cc1cc(C)cc(-c2[nH]c(C)c3c2CCCC3=O)c1 [Example 17, 1-(3,5-dimethylphenyl)-3-methyl-2,5,6,7-tetrahydro-4H-isoindol-4-one] | 5.51 µM | 17.5 µM
9 | Cc1[nH]c(-c2cccc(OCc3ccccc3)c2)c2c1C(=O)CCC2 [Example 14, 1-[3-(benzyloxy)phenyl]-3-methyl-2,5,6,7-tetrahydro-4H-isoindol-4-one] | 9.06 µM | 22.2 µM
10 | Cc1[nH]c(-c2ccc(Cl)cc2)c2c1C(=O)CCC2 [Example 13, 1-(4-chlorophenyl)-3-methyl-2,5,6,7-tetrahydro-4H-isoindol-4-one] | 7.29 µM | 22.2 µM
11 | Cc1[nH]c(-c2ccccc2COc2cccc(C(F)(F)F)c2)c2c1C(=O)CCC2 [Example 23, 3-methyl-1-(2-{[3-(trifluoromethyl)phenoxy]methyl}phenyl)-2,5,6,7-tetrahydro-4H-isoindol-4-one] | 9.09 µM | 8.92 µM
12 | COc1ccc(-c2[nH]c(C)c3c2CCCC3=O)cc1 [Example 11, 1-(4-methoxyphenyl)-3-methyl-2,5,6,7-tetrahydro-4H-isoindol-4-one] | 1.88 µM | 5.46 µM
13 | Cc1[nH]c(-c2cc(NS(C)(=O)=O)ccc2Oc2ccc(F)cc2F)c2c1C(=O)CCC2 [Example 46, N-[4-(2,4-difluorophenoxy)-3-(3-methyl-4-oxo-4,5,6,7-tetrahydro-2H-isoindol-1-yl)phenyl]methanesulfonamide] | 0.014 µM | 0.052 µM
14 | Cc1[nH]c(-c2ccccc2N)c2c1C(=O)CCC2 [Example 3, 1-(2-aminophenyl)-3-methyl-2,5,6,7-tetrahydro-4H-isoindol-4-one] | 3.73 µM | 15 µM
15 | Cc1[nH]c(-c2ccccc2COc2ccccc2)c2c1C(=O)CCC2 [Example 24, 3-methyl-1-[2-(phenoxymethyl)phenyl]-2,5,6,7-tetrahydro-4H-isoindol-4-one] | 1.2 µM | 2.3 µM
16 | Cc1ccc(-c2[nH]c(C)c3c2CCCC3=O)cc1C [Example 12, 1-(3,4-dimethylphenyl)-3-methyl-2,5,6,7-tetrahydro-4H-isoindol-4-one] | 2.86 µM | 10.4 µM
17 | COC(=O)c1ccc(Oc2ccccc2)c(-c2[nH]c(C)c3c2CCCC3=O)c1 [Example 53, methyl 3-(3-methyl-4-oxo-4,5,6,7-tetrahydro-2H-isoindol-1-yl)-4-phenoxybenzoate] | 0.927 µM | 3.67 µM
18 | Cc1[nH]c(-c2cc(C(=O)Nc3nccs3)ccc2Oc2ccccc2)c2c1C(=O)CCC2 [Example 57, 3-(3-methyl-4-oxo-4,5,6,7-tetrahydro-2H-isoindol-1-yl)-4-phenoxy-N-(1,3-thiazol-2-yl)benzamide] | 1.07 µM | 22.2 µM
19 | Cc1[nH]c(-c2ccccc2OCc2ccc3[nH]ncc3c2)c2c1C(=O)CCC2 [Example 38, 1-[2-(1H-indazol-5-ylmethoxy)phenyl]-3-methyl-2,5,6,7-tetrahydro-4H-isoindol-4-one] | 4.88 µM | 4.86 µM
20 | Cc1[nH]c(-c2cc(C(=O)O)ccc2Oc2ccccc2)c2c1C(=O)CCC2 [Example 54, 3-(3-methyl-4-oxo-4,5,6,7-tetrahydro-2H-isoindol-1-yl)-4-phenoxybenzoic Acid] | 0.045 µM | 0.289 µM
21 | Cc1[nH]c(-c2ccccc2Cl)c2c1C(=O)CCC2 [Example 15, 1-(2-chlorophenyl)-3-methyl-2,5,6,7-tetrahydro-4H-isoindol-4-one] | 1.14 µM | 22.2 µM
22 | Cc1[nH]c(-c2cccc3cc[nH]c23)c2c1C(=O)CCC2 [Example 22, 1-(1H-indol-7-yl)-3-methyl-2,5,6,7-tetrahydro-4H-isoindol-4-one] | 2.47 µM | 8.21 µM
23 | COc1cccc(-c2[nH]c(C)c3c2CCCC3=O)c1 [Example 20, 1-(3-methoxyphenyl)-3-methyl-2,5,6,7-tetrahydro-4H-isoindol-4-one] | 1.77 µM | 4.49 µM
24 | Cc1ccccc1OCc1ccccc1-c1[nH]c(C)c2c1CCCC2=O [Example 25, 3-methyl-1-{2-[(2-methylphenoxy)methyl]phenyl}-2,5,6,7-tetrahydro-4H-isoindol-4-one] | 4.24 µM | 15.1 µM

Continued, values first:

Row | Ki (BRD4 (BDI_K57-E168)) | Ki (BRD4 (BDII_E352-M457)) | Compound
25 | 0.786 µM | 1.03 µM | Cc1[nH]c(-c2ccccc2Oc2ccccc2)c2c1C(=O)CC(C)(C)C2 [Example 63, 3,6,6-trimethyl-1-(2-phenoxyphenyl)-2,5,6,7-tetrahydro-4H-isoindol-4-one]
26 | 0.932 µM | 0.513 µM | Cc1[nH]c(-c2ccc3c(c2)OCO3)c2c1C(=O)CC(C)(C)C2 [Example 58, 1-(1,3-benzodioxol-5-yl)-3,6,6-trimethyl-2,5,6,7-tetrahydro-4H-isoindol-4-one]
27 | 0.034 µM | 0.461 µM | Cc1[nH]c(-c2cc(S(C)(=O)=O)ccc2OCC2CC2)c2c1C(=O)CCC2 [Example 73, 1-[2-(cyclopropylmethoxy)-5-(methylsulfonyl)phenyl]-3-methyl-2,5,6,7-tetrahydro-4H-isoindol-4-one]
28 | 1.5 µM | 1.75 µM | Cc1[nH]c(-c2ccccc2OCc2ccccc2)c2c1C(=O)CC(C)(C)C2 [Example 62, 1-[2-(benzyloxy)phenyl]-3,6,6-trimethyl-2,5,6,7-tetrahydro-4H-isoindol-4-one]
29 | 3.23 µM | 2.52 µM | Cc1[nH]c(-c2ccccc2)c2c1C(=O)CC(C)(C)C2 [Example 59, 3,6,6-trimethyl-1-phenyl-2,5,6,7-tetrahydro-4H-isoindol-4-one]
30 | 3.62 µM | 22.2 µM | 3-methyl-6-(2-methylpropyl)-1-(2-phenoxyphenyl)-2,5,6,7-tetrahydro-4H-isoindol-4-one [Example 68]
31 | 1.2 µM | 2.22 µM | Cc1[nH]c(-c2ccccc2Oc2ccccc2)c2c1C(=O)CC(C(C)C)C2 (centres unmarked) [Example 70, 3-methyl-1-(2-phenoxyphenyl)-6-(propan-2-yl)-2,5,6,7-tetrahydro-4H-isoindol-4-one]
32 | 0.058 µM | 0.069 µM | Cc1[nH]c(-c2cc(N)ccc2Oc2ccccc2)c2c1C(=O)CC(C)C2 (centres unmarked) [Example 66, 1-(5-amino-2-phenoxyphenyl)-3,6-dimethyl-2,5,6,7-tetrahydro-4H-isoindol-4-one]
33 | 7.28 µM | 22.2 µM | Cc1[nH]c(-c2cc(NS(C)(=O)=O)ccc2Oc2ccccc2)c2c1C(=O)CC(c1ccccc1)C2 (centres unmarked) [Example 72, N-[3-(3-methyl-4-oxo-6-phenyl-4,5,6,7-tetrahydro-2H-isoindol-1-yl)-4-phenoxyphenyl]methanesulfonamide]
34 | 2.2 µM | 1.68 µM | Cc1[nH]c(-c2ccccc2N2CCOCC2)c2c1C(=O)CC(C)(C)C2 [Example 61, 3,6,6-trimethyl-1-[2-(morpholin-4-yl)phenyl]-2,5,6,7-tetrahydro-4H-isoindol-4-one]
